Molecules are shown by their SMILES.

The target in the assay is human wild type-CFTR (Homo sapiens, UniProt P13569). Nature of the assay: Cell-based YFP assay. As to conditions: CHO-K1 cells expressing human wild type-CFTR and YFP-H148Q/I152L; forskolin 20 μM = 100% activity; read-out: Cell-based YFP Assay (EC50) Concentration Range. Set-up: expressed in transfected cells; host or cells: CHO-K1 (Chinese hamster ovary). As to the method: Forskolin (Tocris cat. #1099), Dimethyl sulfoxide (Sigma cat. #D4540), FLUO star Omega microplate reader (BMG Labtech, Ortenberg, Germany), MARS Data Analysis Software (BMG Labtech), GraphPad Prism 5 (GraphPad Software, Inc.) Chinese hamster ovary (CHO-K1) cells expressing human wild type-CFTR and halide sensor YFP-H148Q/I152L were constructed and grown in Dulbecco's modified Eagle's medium (DMEM) supplemented with 10% FBS, 2 mM glutamine, 100 units/ml penicillin and 100 μg/ml streptomycin. Chinese hamster ovary (CHO-K1) cells expressing human wild type-CFTR and halide sensor YFP-H148Q/I152L were seeded in 96-well microplate with 2×10^4 cells/well and incubated in 37° C., 48 hours. Then, each well was washed 3 times with PBS and 100 μL PBS was added in each well. […] YFP fluorescence signal affected by I^− ion influx through CFTR channel was measured in 37° C., FLUO star Omega microplate reader according to the following steps: • i) basal 2 seconds; • ii) 140 mM I^− solution 100 μL addition to each well; • iii) YFP fluorescence signal measurement start after 6 seconds; and • iv) following 14 seconds signal detection in every 0.4 seconds periods. […] Experiments were performed in triplicates and the data was averaged. EC50 values were calculated with MARS Data Analysis Software (BMG Labtech) and GraphPad Prism 5.
Sequence of human wild type-CFTR (P13569 whole entry): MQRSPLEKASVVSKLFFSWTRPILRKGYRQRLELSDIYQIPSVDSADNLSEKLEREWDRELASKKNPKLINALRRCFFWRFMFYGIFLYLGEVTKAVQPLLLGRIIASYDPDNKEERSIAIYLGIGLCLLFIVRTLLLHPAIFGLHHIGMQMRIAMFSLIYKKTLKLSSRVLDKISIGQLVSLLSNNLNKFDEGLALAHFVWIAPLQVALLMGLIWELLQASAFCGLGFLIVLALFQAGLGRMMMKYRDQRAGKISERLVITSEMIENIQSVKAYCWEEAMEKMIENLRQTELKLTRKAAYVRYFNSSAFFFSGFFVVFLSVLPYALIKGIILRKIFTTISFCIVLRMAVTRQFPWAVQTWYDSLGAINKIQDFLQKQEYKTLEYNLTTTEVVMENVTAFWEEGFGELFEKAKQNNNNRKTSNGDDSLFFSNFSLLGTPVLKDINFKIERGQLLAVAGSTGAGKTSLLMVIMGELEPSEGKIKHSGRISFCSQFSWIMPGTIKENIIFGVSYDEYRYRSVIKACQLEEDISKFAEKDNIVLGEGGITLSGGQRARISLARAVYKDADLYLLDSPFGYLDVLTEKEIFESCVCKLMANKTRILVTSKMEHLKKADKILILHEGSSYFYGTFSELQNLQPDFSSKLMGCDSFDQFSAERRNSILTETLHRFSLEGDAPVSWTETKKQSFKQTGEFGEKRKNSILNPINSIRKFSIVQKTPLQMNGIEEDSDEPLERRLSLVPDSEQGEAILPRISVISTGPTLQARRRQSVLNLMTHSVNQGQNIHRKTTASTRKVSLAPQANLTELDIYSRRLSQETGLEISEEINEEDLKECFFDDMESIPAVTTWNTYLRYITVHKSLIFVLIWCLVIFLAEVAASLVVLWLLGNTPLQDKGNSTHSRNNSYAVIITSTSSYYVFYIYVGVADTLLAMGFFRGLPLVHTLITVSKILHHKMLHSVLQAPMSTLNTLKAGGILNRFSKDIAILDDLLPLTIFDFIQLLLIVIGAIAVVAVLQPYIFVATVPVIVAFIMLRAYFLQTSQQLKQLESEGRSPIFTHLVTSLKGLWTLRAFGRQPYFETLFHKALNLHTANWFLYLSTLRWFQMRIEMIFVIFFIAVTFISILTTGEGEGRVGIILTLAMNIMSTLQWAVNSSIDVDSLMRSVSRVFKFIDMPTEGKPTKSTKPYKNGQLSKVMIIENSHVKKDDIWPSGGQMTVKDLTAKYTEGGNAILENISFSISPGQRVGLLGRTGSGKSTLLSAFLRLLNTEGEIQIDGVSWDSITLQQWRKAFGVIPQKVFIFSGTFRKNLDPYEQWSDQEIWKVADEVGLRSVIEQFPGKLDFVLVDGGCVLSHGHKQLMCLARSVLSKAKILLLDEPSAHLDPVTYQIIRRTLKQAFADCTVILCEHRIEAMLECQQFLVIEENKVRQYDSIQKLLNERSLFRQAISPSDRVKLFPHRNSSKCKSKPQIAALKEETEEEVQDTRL
Take `COc1ccc(-c2ccnc3cc(C(=O)N[C@H]4CC[C@@H](C(=O)OCCCN5CCOCC5)CC4)nn23)cc1OC` [Compound 196, 3-morpholinopropyl (1s,4s)-4-(7-(3,4-dimethoxyphenyl)pyrazolo [1,5-a]pyrimidine-2-carboxamido)cyclohexane-1-carboxylate]: the EC50 was 200 to 2000 nM.
With `COc1ccc(-c2ccnc3cc(C(=O)N[C@H]4CC[C@H](C(=O)N5CCC(N6CCOCC6)CC5)CC4)nn23)cc1OC` [Compound 341, 7-(3,4-dimethoxyphenyl)-N-((1R,4R)-4-(4-morpholinopiperidine-1-carbonyl)cyclohexyl) pyrazolo[1,5-a] pyrimidine-2-carboxamide] the figure was no less than 2000 nM.
Next, `COc1ccc(-c2ccnc3cc(C(=O)NC4CCC(N(C)C)CC4)nn23)cc1OC` (centres unmarked) [Compound 27, 7-(3,4-dimethoxyphenyl)-N-(4-(dimethylamino)cyclohexyl) pyrazolo[1,5-a]pyrimidine-2-carboxamide]: no less than 2000 nM; `COc1ccc(-c2ccnc3cc(C(=O)Nc4ccc(OCC(=O)O)cc4)nn23)cc1OC` [Compound 35, 2-(4-(7-(3,4-dimethoxyphenyl)pyrazolo[1,5-a]pyrimidine-2-carboxamido)phenoxy)acetic acid]: no less than 2000 nM; `COc1ccc(-c2ccnc3cc(C(=O)N4CCN(C)[C@@H](C)C4)nn23)cc1OC` [Compound 208, (S)-(7-(3,4-dimethoxyphenyl)pyrazolo [1,5-a]pyrimidin-2-yl)(3,4-dimethylpiperazin-1-yl)methanone]: no less than 2000 nM.
With `COc1ccc(-c2ccnc3cc(C(=O)Nc4ccc(N5CCN(C)CC5)cc4)nn23)cc1OC` [Compound 193, 7-(3,4-dimethoxyphenyl)-N-(4-(4-methylpiperazin-1-yl)phenyl)pyrazolo[1,5-a]pyrimidine-2-carboxamide] the figure was less than 200 nM; with `COc1ccc(-c2ccnc3cc(C(=O)N4C[C@H](C)NC[C@@H]4C)nn23)cc1OC` [Compound 362, (7-(3,4-dimethoxyphenyl)pyrazolo[1,5-a]pyrimidin-2-yl) ((2S,5S)-2,5-dimethylpiperazin-1-yl)methanone], 200 to 2000 nM; with `COc1ccc(-c2ccnc3cc(C(=O)N4CCN(C(=O)c5ccc(F)cc5)[C@@H](C)C4)nn23)cc1OC` [Compound 350, (S)-(7-(3,4-dimethoxyphenyl)pyrazolo[1,5-a]pyrimidin-2-yl)(4-(4-fluorobenzoyl)-3-methylpiperazin-1-yl) methanone], less than 200 nM.
As to `COc1ccc(-c2ccnc3cc(C(=O)NC(=Cc4ccccc4)C(=O)N4CCN(C)CC4)nn23)cc1OC` [Compound 134, 7-(3,4-dimethoxyphenyl)-N-(3-(4-methylpiperazin-1-yl)-3-oxo-1-phenylprop-1-en-2-yl)pyrazolo[1,5-a] pyrimidine-2-carboxamide], the EC50 was less than 200 nM.
Next, `COc1ccc(-c2ccnc3cc(C(=O)N[C@]45CC[C@](N6CCOCC6)(CC4)CC5)nn23)cc1OC` [Compound 320, 7-(3,4-dimethoxyphenyl)-N-(4-morpholinobicyclo[2.2.2]octan-1-yl) pyrazolo[1,5-a]pyrimidine-2-carboxamide]: 200 to 2000 nM; `COc1ccc(-c2ccnc3cc(C(=O)Nc4ccc(C(=O)NCCN5CCCC5)cc4)nn23)cc1OC` [Compound 223, 7-(3,4-dimethoxyphenyl)-N-(4-((2-(pyrrolidin-1-yl)ethyl)carbamoyl)phenyl)pyrazolo[1,5-a]pyrimidine-2-carboxamide]: no less than 2000 nM; `COc1ccc(-c2ccnc3cc(C(=O)N[C@H]4CC[C@H](C(=O)N5CCC(N6CCCCC6)CC5)CC4)nn23)cc1OC` [Compound 343, N-((1R,4R)-4-([1,4′-bipiperidine]-1′-carbonyl)cyclohexyl)-7-(3,4-dimethoxyphenyl)pyrazolo [1,5-a]pyrimidine-2-carboxamide]: no less than 2000 nM.
With `COc1ccc(-c2ccnc3cc(NC(=O)C45CCC(N6CCOCC6)(CC4)CC5)nn23)cc1OC` [Compound 288, N-(7-(3,4-dimethoxyphenyl)pyrazolo[1,5-a]pyrimidin-2-yl)-4-morpholinobicyclo[2.2.2]octane-1-carboxamide] the figure was no less than 2000 nM; with `COc1ccc(-c2ccnc3cc(C(=O)NC4CCN(C[C@@H](O)CO)CC4)nn23)cc1OC` [Compound 103, (R)-N-(1-(2,3-dihydroxypropyl)piperidin-4-yl)-7-(3,4-dimethoxyphenyl) pyrazolo[1,5-a]pyrimidine-2-carboxamide], no less than 2000 nM; with `COc1ccc(-c2ccnc3cc(C(=O)N[C@H]4CC[C@@H](O)CC4)nn23)cc1OC` [Compound 102, 7-(3,4-dimethoxyphenyl)-N-((1S,4S)-4-hydroxycyclohexyl) pyrazolo[1,5-a]pyrimidine-2-carboxamide], no less than 2000 nM.
Consider `CCC[C@H]1CN(C(=O)c2cc3nccc(-c4ccc(OC)c(OC)c4)n3n2)CCN1C(=O)c1ccccc1` [Compound 377, (S)-(4-benzoyl-3-propylpiperazin-1-yl) (7-(3,4-dimethoxyphenyl)pyrazolo [1,5-a]pyrimidin-2-yl)methanone], for which the EC50 is less than 200 nM.
Next, `COC(=O)c1ccc(NC(=O)c2cc3nccc(-c4ccc(OC)c(OC)c4)n3n2)cn1` [Compound 190, methyl 5-(7-(3,4-dimethoxyphenyl)pyrazolo [1,5-a]pyrimidine-2-carboxamido)picolinate]: 200 to 2000 nM; `CCOc1ccc(NC(=O)c2cc3nccc(-c4ccc5c(c4)CCO5)n3n2)cc1` [Compound 313, 7-(2,3-dihydrobenzofuran-5-yl)-N-(4-ethoxyphenyl)pyrazolo [1,5-a]pyrimidine-2-carboxamide]: no less than 2000 nM; `COc1ccc(-c2ccnc3cc(C(=O)N4CCN(C(=O)c5ccc(Cl)cc5)[C@@H](C)C4)nn23)cc1OC` [Compound 262, (S)-(4-(4-chlorobenzoyl)-3-methylpiperazin-1-yl) (7-(3,4-dimethoxyphenyl)pyrazolo[1,5-a]pyrimidin-2-yl)methanone]: 200 to 2000 nM.
`COc1ccc(-c2ccnc3cc(C(=O)Nc4ccc(C(=O)N5CCOCC5)c(C)c4)nn23)cc1OC` [Compound 214, 7-(3,4-dimethoxyphenyl)-N-(3-methyl-4-(morpholine-4-carbonyl)phenyl)pyrazolo[1,5-a]pyrimidine-2-carboxamide]: the EC50 is no less than 2000 nM.
Next, `CCOc1ccc(NC(=O)c2cc3nccc(-c4ccc(OC)c(F)c4)n3n2)cc1` [Compound 308, N-(4-ethoxyphenyl)-7-(3-fluoro-4-methoxyphenyl)pyrazolo [1,5-a]pyrimidine-2-carboxamide]: 200 to 2000 nM; `COc1ccc(-c2ccnc3cc(C(=O)Nc4ccc(C(=O)NCCO)cc4)nn23)cc1OC` [Compound 53, 7-(3,4-dimethoxyphenyl)-N-(4-((2-hydroxyethyl)carbamoyl)phenyl)pyrazolo[1,5-a] pyrimidine-2-carboxamide]: 200 to 2000 nM.
As to `COc1ccc(-c2ccnc3cc(C(=O)N4CC[C@@H](O)C4)nn23)cc1OC` [Compound 150, (R)-(7-(3,4-dimethoxyphenyl)pyrazolo[1,5-a]pyrimidin-2-yl)(3-hydroxypyrrolidin-1-yl)methanone], the EC50 is no less than 2000 nM.

The values are drawn from US20240199623A1 (ILDONG PHARMACEUTICAL CO., LTD., priority 2020, published 2024).
